Here are results for 11 compounds from PMC10460844, “Real‐Time Monitoring of Multitarget Antimicrobial Mechanisms of Peptoids Using Label‐Free Imaging with Optical Diffraction Tomography” (Advanced Science, 2023).

The HC50 is the concentration giving 50% haemolysis. A lower HC50 goes with more damage to red cells.

Data set [1] deals with rat erythrocytes. Briefly: Hemolysis assay. It counts as cell-based. In outline:
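Washed Sprague-Dawley rat erythrocytes (10% suspension in PBS pH 7.4) mixed with peptoids (0–100 µM), 60 min at 37 °C; supernatant A540 expressed as % of 1% Triton X-100 lysis. HC10/HC50 are concentrations giving 10%/50% hemolysis; Hmax is hemolysis at 100 µM.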

Data set [2] has as its system E. coli ATCC 25922. Type of data set: cell-based, Escherichia coli. As for the experimental part:
The antibacterial activity of the peptoids was evaluated against gram‐positive (Staphylococcus aureus, ATCC 25 923) and gram‐negative (Escherichia coli, ATCC 25 922) bacteria. […] The MIC of each peptoid was determined using a broth dilution assay. For each assay, the primary culture of either S. aureus or E. coli was grown overnight in cation‐adjusted Mueller Hinton broth 2 (MHB2) media at 37 °C with shaking. A secondary culture was prepared the next day, grown for 3–4 h, and then diluted in MHB2 media with a final concentration of 0.001% acetic acid and 0.02% bovine serum albumin to obtain a calculated optical density (OD) of 0.001. This corresponded to ≈2–5 × 10^5 colony‐forming units (CFU mL^−1) of bacteria. Using 96‐well polypropylene plates (Eppendorf, Hamburg, Germany), 100 µL of 2–5 × 10^5 CFU mL^−1 bacteria were added in triplicate for each peptoid. Each peptoid was assayed at six different concentrations in two‐fold serial dilutions. The maximum peptoid concentration was 25 µM. […] The MIC value determination was performed in triplicate. The MIC was defined as the lowest peptoid concentration that prevented turbidity during visual inspection.

The nature of data set [3]: Analytical reversed-phase HPLC elution (hydrophobicity). Type of data set: physicochemical. Particulars: Table S1; analytical RP-HPLC, SunFire C18, water/ACN + 0.1% TFA, 5 to 100% B linear over 30 min, 1 mL/min, UV 220 nm; approximate comparison of hydrophobicity. The procedure, abridged:
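Retention time (tR) reflects hydrophobicity, with detection at 220 nm. Elution used a 5–100% acetonitrile linear gradient over 30 min after a 2 min hold at 5%, then 5 min at 100%, with both phases containing 0.1% TFA. Column was an analytical C18 (4.6 × 250 mm, 5 μm) run at 1 mL/min.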

Converted amounts (≈) assume the structure as drawn. Where two headings read alike, the source gives them in different places. Square brackets hold non-standard residues; d marks the D form. Peptide text beside a SMILES is read from it. Gly(N(CH2)2(3-indolyl)) = O=C(O)CNCCc1c[nH]c2ccccc12; Nspe = C[C@H](NCC(=O)O)c1ccccc1; Nphe = O=C(O)CNCc1ccccc1; Nlys = NCCCCNCC(=O)O

Turning to `C[C@@H](c1ccccc1)N(CC(N)=O)C(=O)CN(C(=O)CN(CCCCN)C(=O)CN(C(=O)CN(C(=O)CN(CCCCN)C(=O)CN(CCc1c[nH]c2ccccc12)C(=O)CN(C(=O)CN(CCCCN)C(=O)CN(C(=O)CN(C(=O)CNCCCCN)[C@@H](C)c1ccccc1)[C@@H](C)c1ccccc1)[C@@H](C)c1ccccc1)[C@@H](C)c1ccccc1)[C@@H](C)c1ccccc1)[C@@H](C)c1ccccc1` [peptoid 9], the “Hmax (100 µM)” value in data set [1] was determined as 106.4±0.6%. Also, in data set [1] (pH 7.4), the HC10 worked out at 10.6 µM and the HC50 is recorded as 31.9 µM. The “MIC E. coli ATCC25922” value in data set [2] (Table S2, broth dilution, MHB2, 37 °C 24 h, max 25 µM, mean of triplicate) is on record as 3.1 µM (≈ 5.76 µg/mL). Further, in data set [3], the HPLC elution amounted to 54.6 % MeCN.

In data set [1] (pH 7.4), `C[C@@H](c1ccccc1)N(CC(N)=O)C(=O)CN(C(=O)CN(CCCCN)C(=O)CN(C(=O)CN(CCc1c[nH]c2ccccc12)C(=O)CN(CCCCN)C(=O)CN(CCc1c[nH]c2ccccc12)C(=O)CN(C(=O)CN(CCCCN)C(=O)CN(C(=O)CN(C(=O)CNCCCCN)[C@@H](C)c1ccccc1)[C@@H](C)c1ccccc1)[C@@H](C)c1ccccc1)[C@@H](C)c1ccccc1)[C@@H](C)c1ccccc1` [peptoid 15] registered an HC10 of 28.1 µM and an HC50 of 60.9 µM. In data set [1] (red cells of rat), this compound yielded an HC10 of 20.5 µM and an HC50 of 89.2 µM. Further, the “MIC E. coli ATCC25922” value in data set [2] (ATCC 25922) came to 3.1 µM (≈ 5.88 µg/mL). Further, the HPLC elution in data set [3] came out at 53.7 % MeCN.

`C[C@@H](c1ccccc1)N(CC(N)=O)C(=O)CN(C(=O)CN(CCCCN)C(=O)CN(CCc1c[nH]c2ccccc12)C(=O)CN(CCc1c[nH]c2ccccc12)C(=O)CN(CCCCN)C(=O)CN(CCc1c[nH]c2ccccc12)C(=O)CN(CCc1c[nH]c2ccccc12)C(=O)CN(CCCCN)C(=O)CN(C(=O)CN(C(=O)CNCCCCN)[C@@H](C)c1ccccc1)[C@@H](C)c1ccccc1)[C@@H](C)c1ccccc1` [peptoid 20]: the “Hmax (100 µM)” value in data set [1] came out at 106.7±3.5%. In data set [1] (pH 7.4), this compound came in with an HC10 of 8.2 µM and a concentration for 50% haemolysis (HC50) of 33.9 µM. Besides, the HPLC elution in data set [3] is reported as 52.7 % MeCN.

Regarding `C[C@@H](c1ccccc1)N(CC(N)=O)C(=O)CN(C(=O)CN(CCCCN)C(=O)CN(C(=O)CN(C(=O)CN(CCCCN)C(=O)CN(C(=O)CN(C(=O)CN(CCCCN)C(=O)CN(C(=O)CN(C(=O)CN(CCCCN)C(=O)CN(Cc1ccccc1)C(=O)CNCc1ccccc1)[C@@H](C)c1ccccc1)[C@@H](C)c1ccccc1)[C@@H](C)c1ccccc1)[C@@H](C)c1ccccc1)[C@@H](C)c1ccccc1)[C@@H](C)c1ccccc1)[C@@H](C)c1ccccc1` [peptoid 43], the “Hmax (100 µM)” value in data set [1] stood at 105.6±3.8%. In data set [1] (pH 7.4), the HC10 is less than 3.1 µM and the 50% haemolytic concentration (HC50) is given as 6.4 µM. In addition, the HPLC elution in data set [3] is given as 56.8 % MeCN.

Turning to `NCCCCNCC(=O)N(CCc1c[nH]c2ccccc12)CC(=O)N(CCc1c[nH]c2ccccc12)CC(=O)N(CCCCN)CC(=O)N(CCc1c[nH]c2ccccc12)CC(=O)N(CCc1c[nH]c2ccccc12)CC(=O)N(CCCCN)CC(=O)N(CCc1c[nH]c2ccccc12)CC(=O)N(CCc1c[nH]c2ccccc12)CC(=O)N(CCCCN)CC(=O)N(CCc1c[nH]c2ccccc12)CC(=O)N(CCc1c[nH]c2ccccc12)CC(N)=O` [peptoid 23] (H-[Nlys][Gly(N(CH2)2(3-indolyl))][Gly(N(CH2)2(3-indolyl))][Nlys][Gly(N(CH2)2(3-indolyl))][Gly(N(CH2)2(3-indolyl))][Nlys][Gly(N(CH2)2(3-indolyl))][Gly(N(CH2)2(3-indolyl))][Nlys][Gly(N(CH2)2(3-indolyl))][Gly(N(CH2)2(3-indolyl))]-NH2), the “Hmax (100 µM)” value in data set [1] is given as 72.2±0.3%. In data set [1] (pH 7.4), this compound came in with an HC10 of 17.1 µM and an HC50 of 45.2 µM. Moreover, the HPLC elution in data set [3] was found to be 53.0 % MeCN.

Consider `C[C@@H](c1ccccc1)N(CC(=O)N(CCCCN)CC(=O)N(CC(=O)N(CC(=O)N(CCCCN)CC(=O)N(CC(=O)N(CC(=O)N(CCCCN)CC(=O)N(CC(=O)N(CC(=O)N(CC(N)=O)Cc1ccccc1)[C@@H](C)c1ccccc1)[C@@H](C)c1ccccc1)[C@@H](C)c1ccccc1)[C@@H](C)c1ccccc1)[C@@H](C)c1ccccc1)[C@@H](C)c1ccccc1)C(=O)CN(C(=O)CN(CCCCN)C(=O)CNCc1ccccc1)[C@@H](C)c1ccccc1` [peptoid 42] (H-[Nphe][Nlys][Nspe][Nspe][Nlys][Nspe][Nspe][Nlys][Nspe][Nspe][Nlys][Nspe][Nspe][Nphe]-NH2), for which, in data set [1], the “Hmax (100 µM)” value was 105.9±1.1%. In data set [1] (pH 7.4), the HC10 was less than 3.1 µM and the HC50 was determined as 6.6 µM. In data set [3], the HPLC elution is 57.7 % MeCN.

As for `C[C@@H](c1ccccc1)N(CC(=O)N(CCCCN)CC(=O)N(CC(=O)N(CC(=O)N(CCCCN)CC(=O)N(CC(=O)N(CC(=O)N(CCCCN)CC(=O)N(CC(=O)N(CC(=O)N(CCc1c[nH]c2ccccc12)CC(N)=O)[C@@H](C)c1ccccc1)[C@@H](C)c1ccccc1)[C@@H](C)c1ccccc1)[C@@H](C)c1ccccc1)[C@@H](C)c1ccccc1)[C@@H](C)c1ccccc1)C(=O)CN(C(=O)CNCCCCN)[C@@H](C)c1ccccc1` [peptoid 4] (H-[Nlys][Nspe][Nspe][Nlys][Nspe][Nspe][Nlys][Nspe][Nspe][Nlys][Nspe][Nspe][Gly(N(CH2)2(3-indolyl))]-NH2), the “Hmax (100 µM)” value in data set [1] is recorded as 103.2±0.9%. In data set [1] (pH 7.4), the HC10 is less than 6.3 µM and the HC50 came to 6.7 µM. In addition, in data set [3], the HPLC elution is on record as 57.0 % MeCN.

For `C[C@@H](c1ccccc1)N(CC(N)=O)C(=O)CN(C(=O)CN(CCCCN)C(=O)CN(C(=O)CN(CCCCN)C(=O)CN(CCCCN)C(=O)CN(C(=O)CN(C(=O)CN(CCCCN)C(=O)CN(CCc1c[nH]c2ccccc12)C(=O)CN(CCc1c[nH]c2ccccc12)C(=O)CNCCCCN)[C@@H](C)c1ccccc1)[C@@H](C)c1ccccc1)[C@@H](C)c1ccccc1)[C@@H](C)c1ccccc1` [peptoid 33], in data set [1], the “Hmax (100 µM)” value came to 5.0±0.2%. Further, in data set [1] (pH 7.4), the HC10 is recorded as greater than 100 µM and the HC50 is on record as greater than 100 µM. Moreover, the HPLC elution in data set [3] is reported as 47.9 % MeCN.

Consider `C[C@@H](c1ccccc1)N(CC(N)=O)C(=O)CN(C(=O)CN(CCCCN)C(=O)CN(C(=O)CN(CCCCN)C(=O)CN(CCCCN)C(=O)CN(C(=O)CN(C(=O)CN(CCCCN)C(=O)CN(C(=O)CN(C(=O)CN(CCCCN)C(=O)CN(CCc1c[nH]c2ccccc12)C(=O)CNCCc1c[nH]c2ccccc12)[C@@H](C)c1ccccc1)[C@@H](C)c1ccccc1)[C@@H](C)c1ccccc1)[C@@H](C)c1ccccc1)[C@@H](C)c1ccccc1)[C@@H](C)c1ccccc1` [peptoid 35], for which the “Hmax (100 µM)” value in data set [1] is 82.6±3.2%. Also, in data set [1] (pH 7.4), the HC10 amounted to 20.4 µM and the HC50 is reported as 63.0 µM. Besides, the HPLC elution in data set [3] was 51.8 % MeCN.

In the case of `C[C@@H](c1ccccc1)N(CC(N)=O)C(=O)CN(C(=O)CN(CCCCN)C(=O)CN(C(=O)CN(C(=O)CN(CCCCN)C(=O)CN(C(=O)CN(C(=O)CN(CCCCN)C(=O)CN(C(=O)CN(CCCCN)C(=O)CN(CCCCN)C(=O)CN(CCc1c[nH]c2ccccc12)C(=O)CNCCc1c[nH]c2ccccc12)[C@@H](C)c1ccccc1)[C@@H](C)c1ccccc1)[C@@H](C)c1ccccc1)[C@@H](C)c1ccccc1)[C@@H](C)c1ccccc1)[C@@H](C)c1ccccc1` [peptoid 36], in data set [1], the “Hmax (100 µM)” value is recorded as 89.1±3.4%. Further, in data set [1] (pH 7.4), the HC10 came to 15.3 µM and the HC50 was found to be 39.4 µM. In data set [3], the HPLC elution is 52.4 % MeCN.

As to `C[C@@H](c1ccccc1)N(CC(=O)N(CCCCN)CC(=O)N(CCCCN)CC(=O)N(CCc1c[nH]c2ccccc12)CC(=O)N(CCc1c[nH]c2ccccc12)CC(N)=O)C(=O)CN(CCCCN)C(=O)CN(C(=O)CN(C(=O)CN(CCCCN)C(=O)CN(C(=O)CN(C(=O)CNCCCCN)[C@@H](C)c1ccccc1)[C@@H](C)c1ccccc1)[C@@H](C)c1ccccc1)[C@@H](C)c1ccccc1` [peptoid 28] (H-[Nlys][Nspe][Nspe][Nlys][Nspe][Nspe][Nlys][Nspe][Nlys][Nlys][Gly(N(CH2)2(3-indolyl))][Gly(N(CH2)2(3-indolyl))]-NH2), the “Hmax (100 µM)” value in data set [1] is 8.9±1.4%. Besides, in data set [1] (pH 7.4), the HC10 was greater than 100 µM and the HC50 is reported as greater than 100 µM. Moreover, the HPLC elution in data set [3] turned out to be 48.6 % MeCN.
